Experimental data published in patent US20190223437A1, “ACTIVE COMPOUND COMBINATIONS COMPRISING A 5-SUBSTITUTED IMIDAZOLE DERIVATIVE” (BAYER CROPSCIENCE AKTIENGESELLSCHAFT, priority 2016, published 2019).
Where “and” joins values, the source holds several entries; their conditions need not be identical. Equal entries are not always repeated.

Tests used:
[1] = Example G: in vivo ecotoxicity screening test on fish (Danio rerio); settings: Danio rerio, in vivo, other: exposure of embryos in water containing the compound
Description: with ECxi the Effect Concentration (EC) of each chemical i (in ppm) causing x % effect on the ecotoxicity test endpoint.
For each compound combination, the predicted ECx value is calculated. It is then compared to an experimentally measured value. The ratio of predicted versus measured effect for the combination (thereafter called the Model Deviation Ratio or MDR) is then calculated.
The environmental effect of the compound combinations was measured experimentally in laboratory ecotoxicity screening studies with fish (Danio rerio). […] Mortality was recorded after 48 h and 96 h for each tested concentration and a reference control. […] Then, the MDR values were calculated.
This concentrate is then diluted with water to the desired a.i. concentration, leading to a maximal solvent concentration of 0.5%. by weight The compounds alone and the combinations were tested for five increasing concentrations comprised between 0.01 and 1000 ppm (mg/1) a.i., (e.g. 0.1, 1.0, 10 and 100 ppm a.i). For the combinations, compounds A and B were mixed in a weight ratio of 5:1 to 1:5 and five increasing concentrations were tested for each ratio.

Sphaerotheca fuliginea = assay: Example D: in vivo preventive test on Sphaerotheca test (cucumbers); settings: compound alone
[2] = test system: causal agent of soybean rust (Phakopsora pachyrhizi); assay: Example C: in vivo preventive test on Phakopsora test (soybeans); settings: compound alone
[3] = test system: causal agent of apple scab (Venturia inaequalis); assay: Example E: in vivo preventive test on Venturia test (apples); settings: compound alone
Pyrenophora oryzae = assay: Example F: in vitro-Test with Pyrenophora oryzae; type: cell-based; settings: compound alone
Alternaria solani = assay: Example A: in vivo preventive test on Alternaria test (tomatoes); settings: compound alone, evaluated 3 days after inoculation
Description: (§1) The test is evaluated 3 days after the inoculation.

Colletotrichum coccodes = assay: Example B: in vivo preventive test on Colletotrichum test (tomatoes); settings: compound alone
Description: as §1

Septoria tritici = assay: Example F: in vitro-Test with Septoria tritici; type: cell-based; settings: compound alone

In the case of `CC(C)(C)[C@@H](O)[C@@H](Cc1ccc(Cl)cc1)n1cncn1` (racemic) [Example 1.015, paclobutrazol], the LC50 at 48 h [1] was 99.8 µg/mL and the LC50 at 96 h [1] was 56.5 µg/mL.

With `CC(C)C1CCC(Cc2ccc(Cl)cc2)C1(O)Cn1cncn1` (stereo not drawn) [1.012 ipconazole] the “Efficacy in % found” value (Sphaerotheca fuliginea; 2.5 ppm a.i.) was 0%, the “Efficacy in % found” value (Sphaerotheca fuliginea; 5 ppm a.i.) was 0% and the “Efficacy in % found” value (Sphaerotheca fuliginea; 10 ppm a.i.) was 0%.

For `O=C(NCCc1ncc(C(F)(F)F)cc1Cl)c1ccccc1C(F)(F)F` [2.005 fluopyram], the “Efficacy in % found” value ([2]; 5 ppm a.i.) was 0%, the “Efficacy in % found” value ([2]; 10 ppm a.i.) was 0% and the “Efficacy in % found” value ([2]; 20 ppm a.i.) was 0%.

With `Cc1nn(C)c(F)c1C(=O)Nc1ccccc1C(C)CC(C)C` (stereo not drawn) [2.017 penflufen] the “Efficacy in % found” value ([3]; 5 ppm a.i.) was 18%, the “Efficacy in % found” value ([3]; 10 ppm a.i.) was 26% and the “Efficacy in % found” value ([3]; 20 ppm a.i.) was 23%. For the same compound, the “Efficacy in % found” value ([2]; 5 ppm a.i.) was 0%, the “Efficacy in % found” value ([2]; 10 ppm a.i.) was 8% and the “Efficacy in % found” value ([2]; 20 ppm a.i.) was 60%.

With `CON=C(C(=O)OC)c1ccccc1CON=C(C)c1cccc(C(F)(F)F)c1` [3.020 trifloxystrobin] the Efficacy % (Pyrenophora oryzae; 0.04 ppm) was 0%, the Efficacy % (Pyrenophora oryzae; 0.2 ppm) was 0% and the Efficacy % (Pyrenophora oryzae; 1 ppm) was 0%.

With `N#Cc1c(Cl)c(Cl)c(Cl)c(C#N)c1Cl` [5.004 chlorothalonil, chlorothalonil] the “Efficacy in % found” value (Alternaria solani; 12.5 ppm a.i.) was 0%, the “Efficacy in % found” value (Alternaria solani; 25 ppm a.i.) was 0% and the “Efficacy in % found” value (Alternaria solani; 50 ppm a.i.) was 15%. The “Efficacy in % found” value (Colletotrichum coccodes; 12.5 ppm a.i.) was 0%, the “Efficacy in % found” value (Colletotrichum coccodes; 25 ppm a.i.) was 0% and the “Efficacy in % found” value (Colletotrichum coccodes; 50 ppm a.i.) was 0%. For the same compound, the “Efficacy in % found” value ([2]; 12.5 ppm a.i.) was 0%, the “Efficacy in % found” value ([2]; 25 ppm a.i.) was 0% and the “Efficacy in % found” value ([2]; 50 ppm a.i.) was 30%.

For `CCCOc1nc2ccc(I)cc2c(=O)n1CCC` [13.004 proquinazid], the “Efficacy in % found” value (Sphaerotheca fuliginea; 25 ppm a.i.) was 90%, the “Efficacy in % found” value (Sphaerotheca fuliginea; 50 ppm a.i.) was 100% and the “Efficacy in % found” value (Sphaerotheca fuliginea; 100 ppm a.i.) was 100%. For the same compound, the Efficacy % (Septoria tritici; 4 ppm) was 0% and the Efficacy % (Septoria tritici; 20 ppm) was 37% and 40%.

For `O=C(Cc1ccccc1)N/C(=N\OCC1CC1)c1c(C(F)(F)F)ccc(F)c1F` [15.008 cyflufenamid], the “Efficacy in % found” value ([3]; 1 ppm a.i.) was 0%, the “Efficacy in % found” value ([3]; 2 ppm a.i.) was 0% and the “Efficacy in % found” value ([3]; 4 ppm a.i.) was 8%.

`CON=C(C(=O)OC)c1ccccc1CON=C(C)c1cccc(C(F)(F)F)c1` [15.047 trifloxystrobin] gave an Efficacy % (Pyrenophora oryzae; 0.04 ppm) of 17% and an Efficacy % (Pyrenophora oryzae; 0.2 ppm) of 86%.

`CC(C)C1CCC(Cc2ccc(Cl)cc2)C1(O)Cn1cncn1` (stereo not drawn) [Example 1.012, ipconazole] gave an LC50 at 48 h [1] of 13.8 µg/mL and an LC50 at 96 h [1] of 6.57 µg/mL.

In the case of `OC(Cc1ccccc1Cl)(Cn1nc[nH]c1=S)C1(Cl)CC1` (stereo not drawn) [Example 1.018, prothioconazole], the LC50 at 48 h [1] was 9.49 µg/mL and the LC50 at 96 h [1] was 3.16 µg/mL.

Work on `CC(C)(C)C(O)(CCc1ccc(Cl)cc1)Cn1cncn1` (stereo not drawn) [Example 1.021, tebuconazole] yielded an LC50 at 48 h [1] of 19.7 µg/mL and an LC50 at 96 h [1] of 19.7 µg/mL.

With `CC1CC(C)(C)c2cccc(NC(=O)c3cn(C)nc3C(F)F)c21` (stereo not drawn) [Example 2.027, 3-(difluoromethyl)-1-methyl-N-(1,1,3-trimethyl-2,3-dihydro-1H-inden-4-yl)-1H-pyrazole-4-carboxamide, reference compound] the Efficacy % (Pyrenophora oryzae; 0.8 ppm) was 55%, the Efficacy % (Pyrenophora oryzae; 4 ppm) was 81% and the LC50 at 48 h [1] was 1.85 µg/mL. For the same compound, the LC50 at 96 h [1] was 1.74 µg/mL, the “Efficacy in % found” value ([3]; 1 ppm a.i.) was 8% and the “Efficacy in % found” value ([3]; 2 ppm a.i.) was 8%. For the same compound, the “Efficacy in % found” value ([3]; 4 ppm a.i.) was 74%, the “Efficacy in % found” value ([2]; 1 ppm a.i.) was 15% and the “Efficacy in % found” value ([2]; 2 ppm a.i.) was 85%. For the same compound, the “Efficacy in % found” value ([2]; 4 ppm a.i.) was 96%.

In the case of `CC(C)c1ccc(Cl)cc1CN(C(=O)c1c(C(F)F)nn(C)c1F)C1CC1` [Example 2.038, N-(5-chloro-2-isopropylbenzyl)-N-cyclopropyl-3-(difluoromethyl)-5-fluoro-1-methyl-1H-pyrazole-4-carboxamide], the LC50 at 48 h [1] was 0.51 µg/mL, the LC50 at 96 h [1] was 0.35 µg/mL and the “Efficacy in % found” value ([2]; 1 ppm a.i.) was 0%. The “Efficacy in % found” value ([2]; 2 ppm a.i.) was 0% and the “Efficacy in % found” value ([2]; 4 ppm a.i.) was 0%.

Work on `CON=C(C(=O)OC)c1ccccc1CON=C(C)c1cccc(C(F)(F)F)c1` [Example 3.020, trifloxystrobin] yielded an LC50 at 48 h [1] of 0.4 µg/mL and an LC50 at 96 h [1] of 0.24 µg/mL.

In the case of `COc1ccnc(C(=O)N[C@H]2COC(=O)[C@H](Cc3ccccc3)[C@@H](OC(=O)C(C)C)[C@H](C)OC2=O)c1OCOC(=O)C(C)C` [Example 3.025, (3S,6S,7R,8R)-8-benzyl-3-[({3-[(isobutyryloxy)methoxy]-4-methoxypyridin-2-yl}carbonyl)amino]-6-methyl-4,9-dioxo-1,5-dioxonan-7-yl 2-methylpropanoate], the Efficacy % (Pyrenophora oryzae; 4 ppm) was 0%, the Efficacy % (Pyrenophora oryzae; 20 ppm) was 0% and the LC50 at 48 h [1] was 2.31 µg/mL. For the same compound, the LC50 at 96 h [1] was 1.87 µg/mL, the “Efficacy in % found” value ([2]; 5 ppm a.i.) was 0% and the “Efficacy in % found” value ([2]; 10 ppm a.i.) was 30%. The “Efficacy in % found” value ([2]; 20 ppm a.i.) was 35%.

Work on `O=C(Nc1ccccc1)N(Cc1ccc(Cl)cc1)C1CCCC1` [Example 4.005, pencycuron] yielded an LC50 at 48 h [1] greater than 200 µg/mL and an LC50 at 96 h [1] greater than 200 µg/mL.

For `N#Cc1c[nH]cc1-c1cccc2c1OC(F)(F)O2` [Example 13.001, fludioxonil], the LC50 at 48 h [1] was 0.91 µg/mL and the LC50 at 96 h [1] was 0.89 µg/mL.

With `O=C(Cc1ccccc1)N/C(=N\OCC1CC1)c1c(C(F)(F)F)ccc(F)c1F` [Example 15.008, cyflufenamid] the LC50 at 48 h [1] was 9.71 µg/mL and the LC50 at 96 h [1] was 5.2 µg/mL.

In the case of `N#Cc1cncn1CC(O)(Cc1ccccc1F)C1(Cl)CC1` (stereo not drawn) [Example I-34, 1-[2-(1-chlorocyclopropyl)-3-(2-fluorophenyl)-2-hydroxypropyl]-1H-imidazole-5-carbonitrile], the “Efficacy in % found” value (Alternaria solani; 1 ppm a.i.) was 15%, the “Efficacy in % found” value (Alternaria solani; 5 ppm a.i.) was 45% and the “Efficacy in % found” value (Colletotrichum coccodes; 1 ppm a.i.) was 8%. The “Efficacy in % found” value (Colletotrichum coccodes; 5 ppm a.i.) was 60%, the “Efficacy in % found” value (Sphaerotheca fuliginea; 1 ppm a.i.) was 0% and the “Efficacy in % found” value (Sphaerotheca fuliginea; 5 ppm a.i.) was 0%. It also gave an Efficacy % (Pyrenophora oryzae; 0.008 ppm) of 0%, an Efficacy % (Pyrenophora oryzae; 0.2 ppm) of 0% and an Efficacy % (Septoria tritici; 0.008 ppm) of 0%. The Efficacy % (Septoria tritici; 0.04 ppm) was 28%, the Efficacy % (Septoria tritici; 0.2 ppm) was 59% and the Efficacy % (Septoria tritici; 1 ppm) was 68%. For the same compound, the LC50 at 48 h [1] was 35.6 µg/mL, the LC50 at 96 h [1] was 27.4 µg/mL and the “Efficacy in % found” value ([3]; 1 ppm a.i.) was 8%. The “Efficacy in % found” value ([3]; 5 ppm a.i.) was 66% and 68%, the “Efficacy in % found” value ([2]; 1 ppm a.i.) was 8% and 0% and the “Efficacy in % found” value ([2]; 5 ppm a.i.) was 93% and 88%.

In the case of propineb [5.018 propineb], the “Efficacy in % found” value (Alternaria solani; 12.5 ppm a.i.) was 0%, the “Efficacy in % found” value (Alternaria solani; 25 ppm a.i.) was 8% and the “Efficacy in % found” value (Alternaria solani; 50 ppm a.i.) was 50%. The “Efficacy in % found” value ([2]; 12.5 ppm a.i.) was 0%, the “Efficacy in % found” value ([2]; 25 ppm a.i.) was 0% and the “Efficacy in % found” value ([2]; 50 ppm a.i.) was 40%.
